For experiment [1], the system named is EV71 virus. The experiment in a line: microbe, parasite or virus in culture. The settings on record: Enterovirus A, EV71, RD, 96 h.
Experiment [2] has as its system EV-D68.
For experiment [3], the system named is EV71 virus.
For the next experiment, the target named is mTORC1 (Homo sapiens, UniProt P42345). The settings on record: RD cells, 20 μM, 2 hours, insulin medium, Western blot.
Experiment [4] deals with Poliovirus I/II/III (mixed vaccine strains of three subtypes). Nature of the experiment: microbe, parasite or virus in culture. To be noted: Enterovirus C, RD, 96 h.
The next experiment deals with mTORC2 (Homo sapiens, UniProt P42345). The settings on record: RD cells, 20 μM, 2 hours, insulin medium, Western blot. (A western blot detects proteins with antibodies after separation by electrophoresis.)
The test system of another experiment is CA16. The experiment in a line: organism not typed. The class given is cell-based. To be noted: RD, 96 h.
The subject of experiment [5] is CB3 virus.
In another experiment the test system is CA10. Nature of the experiment: organism not typed. The settings on record: RD, 96 h. The class given is cell-based.
In experiment [6] the test system is EV-D68. The experiment in a line: microbe, parasite or virus in culture. To be noted: Enterovirus D, EVD68, RD, 96 h.
Another experiment concerns the target mTOR kinase (Homo sapiens, UniProt P42345). The experiment in a line: Inhibitory activity on mTOR kinase (TR-FRET, GFP-4E-BP1 substrate). The class given is biochemical. The settings on record: fit parameter of concentration-mTOR kinase inhibition curve.
The test system of a further experiment is CA6. The experiment in a line: organism not typed. The class given is cell-based. To be noted: RD, 96 h.
For experiment [7], the system named is CB3 virus. The experiment in a line: organism not typed. The settings on record: Vero, 120 h.
The test system of experiment [8] is Poliovirus I/II/III (mixed vaccine strains of three subtypes).

Some results are limits rather than exact numbers.

In the case of `Nc1ccc(-c2ccc3ncc4ccc(=O)n(-c5cccc(C(F)(F)F)c5)c4c3c2)cn1` [compound of Formula I, 9-(6-amino-pyridin-3-yl)-1-(3-trifluoromethyl-phenyl)-1H-benzo[h][1,6]naphthyridin-one], the IC50 was 10 nM in the experiment on EV71 virus [1]; 52 nM in experiment [4]; over 10000 nM with CA16; over 10000 nM with CA10; 5 nM in the experiment with EV-D68 [6]; over 10000 nM with CA6. The IC50 in the experiment with CB3 virus [7] stood at 5 nM. Further, the “inhibitory effect on enterovirus (in words)” value (in the experiment with EV-D68 [2]; in the experiment on EV71 virus [3]; in the experiment on CB3 virus [5]; in [8]) was “significant inhibitory effect” throughout. For the same molecule, the “phosphorylation expression levels of p70 (Thr389 of p70S6K1)” value at mTORC1 is listed as “significantly reduced”. Further, the “phosphorylation level of Akt (Ser473)” value at mTORC2 is listed as “significantly down-regulate”. In addition, on mTOR kinase, the Bottom was 3.74. The molecule further gave a HillSlope on mTOR kinase of 1.14. At mTOR kinase, this molecule came in with a Top of 103.60.

Broadly, the IC50 is the point on the concentration scale where inhibition reaches its midpoint.
